Experimental findings from the NIST ThermoML archive (doi:10.1016/j.tca.2017.12.026) are described below.

The conditions of series [1]: Crystal; DTA.
Series [2] can be described thus: Molar enthalpy of transition or fusion. The following applies: Crystal; DSC.

Structures are written as SMILES. “And” between values parts separate entries of the source, which are not always exact repeats. Equal entries are not always repeated. Numbers after ± are expanded uncertainties.

`OC[C@@H](O)[C@@H](O)[C@H](O)[C@H](O)CO` [D-mannitol]: the Normal melting temperature in series [1] was 165.73 ± 2 °C and 166.68 ± 2 °C and 165.74 ± 2 °C. Besides, in series [2], the “Molar enthalpy of transition or fusion” value is 12.9 kcal/mol and 12.4 kcal/mol and 12.5 kcal/mol.
